The target in assay [1] is T1, melanocortin-4 receptor (Homo sapiens, UniProt P32245).
T1 construct: expressed in transfected cells; host or cells: HEK293 cells (membrane preparations)
Kind of assay: Functional assay (cAMP fluorescence polarization, membrane based, agonistic activity). The class given is biochemical. To be noted: 2 h; read-out: % activation functional assay. For orientation: Polarisation of emitted light reports the rotation of a fluorescent probe.

For assay [2], the target named is T1, melanocortin-4 receptor. Kind of assay: Membrane binding assay (fluorescence polarization, competition with fluorescence labeled NDP-alpha-MSH). To be noted: read-out: hMC-4R binding assay IC50/μM.

These results are taken from patent publication US8236818B2, “Substituted imidazopyridine derivatives as melanocortin-4 receptor antagonists” (Santhera Pharmaceuticals (Schweiz) AG, priority 2007, dated 2012).

Some results are limits rather than exact numbers.

T1 sequence (P32245 whole entry): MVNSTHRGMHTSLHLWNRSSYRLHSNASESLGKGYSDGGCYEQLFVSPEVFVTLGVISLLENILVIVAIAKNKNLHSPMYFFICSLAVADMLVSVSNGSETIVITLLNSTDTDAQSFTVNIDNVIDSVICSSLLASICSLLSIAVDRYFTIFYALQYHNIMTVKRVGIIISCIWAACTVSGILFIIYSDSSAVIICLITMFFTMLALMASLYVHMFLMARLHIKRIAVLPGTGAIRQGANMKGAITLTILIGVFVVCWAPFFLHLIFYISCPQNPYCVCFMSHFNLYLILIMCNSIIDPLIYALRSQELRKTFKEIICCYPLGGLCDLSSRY

Consider `CC(C)CCN(CCC(C)C)C(=O)c1ccc2nc(-c3ccc(Cl)cc3)c(CN3C[C@H]4CNC[C@H]4C3)n2c1` [Example 127], for which the Emax at melanocortin-4 receptor [1] came out at 0%. Further, the IC50 on melanocortin-4 receptor [2] was in the range of 0.1 to 1 µM.

`CC(C)CCN(CCC(C)C)C(=O)c1ccc2nc(-c3ccc(Cl)cc3)c(CN3CCN4CCCC4C3)n2c1` (stereo not shown) [Example 128]: the Emax on melanocortin-4 receptor [1] amounted to 0%. Moreover, the IC50 on melanocortin-4 receptor [2] is above 1 µM.

As to `COc1ccc(-c2nc3ccc(C(=O)N(CCC(C)C)CCC(C)C)cn3c2CN2CCC(N(C)C)CC2)c(OC)c1` [Example 129], the Emax on melanocortin-4 receptor [1] was determined as 0%. Besides, the IC50 at melanocortin-4 receptor [2] was above 1 µM.

In the case of `COc1ccc(OC)c(-c2nc3ccc(C(=O)N(CCC(C)C)CCC(C)C)cn3c2CN2CCC(N(C)C)CC2)c1` [Example 130], the Emax at melanocortin-4 receptor [1] was determined as 0%. The IC50 at melanocortin-4 receptor [2] is above 1 µM.

As to `CC(C)CCN(CCC(C)C)C(=O)c1ccc2nc(-c3ccc(Cl)c(Cl)c3)c(CN3CCC(N(C)C)CC3)n2c1` [Example 131], the Emax at melanocortin-4 receptor [1] is 0%. Besides, the IC50 on melanocortin-4 receptor [2] was below 0.1 µM.

As for `CC(C)CCN(CCC(C)C)C(=O)c1ccc2nc(-c3ccccc3)c(CN3CCC(N)CC3)n2c1` [Example 133], on melanocortin-4 receptor [1], the Emax amounted to 0%. Also, the IC50 at melanocortin-4 receptor [2] was 0.1 to 1 µM.

`CC(C)CCN(CCC(C)C)C(=O)c1ccc2nc(-c3ccc(C(F)(F)F)cc3)c(CN3CCC(N)CC3)n2c1` [Example 134]: the Emax on melanocortin-4 receptor [1] is 0%. Moreover, on melanocortin-4 receptor [2], the IC50 is 0.1 to 1 µM.

`CC(C)CCN(CCC(C)C)C(=O)c1ccc2nc(-c3nccs3)c(CN3CCC(N)CC3)n2c1` [Example 135]: the Emax at melanocortin-4 receptor [1] worked out at 0%. Moreover, on melanocortin-4 receptor [2], the IC50 is above 1 µM.

In the case of `CC(C)CCN(CCC(C)C)C(=O)c1ccc2nc(-c3ccc4c(c3)CCC(=O)N4)c(CN3CCC(N)CC3)n2c1` [Example 136], the Emax at melanocortin-4 receptor [1] came out at 0%. Besides, the IC50 on melanocortin-4 receptor [2] was 0.1 to 1 µM.

Regarding `CC(C)CCN(CCC(C)C)C(=O)c1ccc2nc(-c3ccc4c(c3)NC(=O)CO4)c(CN3CCC(N)CC3)n2c1` [Example 137], on melanocortin-4 receptor [1], the Emax came to 0%. For the same compound, the IC50 at melanocortin-4 receptor [2] fell in the range of 0.1 to 1 µM.

In the case of `CC(C)CCN(CCC(C)C)C(=O)c1ccc2nc(-c3ccc(C#N)cc3)c(CN3CCC(N)CC3)n2c1` [Example 138], the Emax on melanocortin-4 receptor [1] was 0%. The IC50 at melanocortin-4 receptor [2] was 0.1 to 1 µM.

On to `COc1ccc(-c2nc3ccc(C(=O)N(CCC(C)C)CCC(C)C)cn3c2CN2CCC(N)CC2)cc1OC` [Example 139], for which the Emax on melanocortin-4 receptor [1] was found to be 0%. The IC50 at melanocortin-4 receptor [2] lay within 0.1 to 1 µM.

Consider `COc1ccc(-c2nc3ccc(C(=O)N(CCC(C)C)CCC(C)C)cn3c2CN2CCC(N)CC2)cc1` [Example 140], for which the Emax at melanocortin-4 receptor [1] came out at 0%. Besides, the IC50 at melanocortin-4 receptor [2] was 0.1 to 1 µM.

Take `CCCN(CC1CC1)C(=O)c1ccc2nc(-c3ccc(C#N)cc3)c(CCCN3CCCC3)n2c1` [Example 141]: the Emax on melanocortin-4 receptor [1] was determined as 0%. Further, the IC50 at melanocortin-4 receptor [2] lay in the range of 0.1 to 1 µM.

For the compound `CCCCN(CCCC)C(=O)c1ccc2nc(-c3ccc(C#N)cc3)c(CCCN3CCCC3)n2c1` [Example 142], on melanocortin-4 receptor [1], the Emax was determined as 0%. Besides, at melanocortin-4 receptor [2], the IC50 is below 0.1 µM.

On to `CC(C)CCN(CCC1CC1)C(=O)c1ccc2nc(-c3ccc(C#N)cc3)c(CCCN3CCCC3)n2c1` [Example 143], for which, on melanocortin-4 receptor [1], the Emax is 0%. For the same compound, the IC50 on melanocortin-4 receptor [2] was below 0.1 µM.

Consider `CC(C)CN(CC(C)C)C(=O)c1ccc2nc(-c3ccc(C#N)cc3)c(CCCN3CCCC3)n2c1` [Example 144], for which the Emax at melanocortin-4 receptor [1] amounted to 0%. Also, the IC50 at melanocortin-4 receptor [2] was in the range of 0.1 to 1 µM.

Turning to `N#Cc1ccc(-c2nc3ccc(C(=O)N(CCC4CC4)CCC4CC4)cn3c2CCCN2CCCC2)cc1` [Example 145], at melanocortin-4 receptor [1], the Emax came to 0%. In addition, the IC50 at melanocortin-4 receptor [2] is below 0.1 µM.

In the case of `CC(C)CC1CCCN1C(=O)c1ccc2nc(-c3ccc(C#N)cc3)c(CCCN3CCCC3)n2c1` (stereo not shown) [Example 146], the Emax on melanocortin-4 receptor [1] is 0%. In addition, at melanocortin-4 receptor [2], the IC50 lay within 0.1 to 1 µM.

Regarding `CCCC1CCCN1C(=O)c1ccc2nc(-c3ccc(C#N)cc3)c(CCCN3CCCC3)n2c1` (stereo not shown) [Example 147], the Emax on melanocortin-4 receptor [1] worked out at 0%. Further, the IC50 on melanocortin-4 receptor [2] was above 1 µM.

For the compound `O=C(c1ccc2nc(-c3ccc(=O)[nH]c3)c(CCCN3CCCC3)n2c1)N(CCC1CC1)CCC1CC1` [Example 148], the Emax on melanocortin-4 receptor [1] is -12%. For the same compound, the IC50 on melanocortin-4 receptor [2] is 0.1 to 1 µM.

Consider `CC(C)CCN(CCC(C)CO)C(=O)c1ccc2nc(-c3ccc(=O)[nH]c3)c(CCCN3CCCC3)n2c1` (stereo not shown) [Example 149], for which, at melanocortin-4 receptor [1], the Emax turned out to be 0%. For the same compound, the IC50 at melanocortin-4 receptor [2] is 0.1 to 1 µM.

With `CC(C)CCN(CC(C)C)C(=O)c1ccc2nc(-c3ccc(C#N)cc3)c(CN3CCC(N)CC3)n2c1` [Example 150], on melanocortin-4 receptor [1], the Emax turned out to be 0%. Besides, the IC50 at melanocortin-4 receptor [2] lay in the range of 0.1 to 1 µM.
